Test [1] concerns the target T1, Alpha-2A adrenergic receptor [16-465] (Rattus norvegicus, UniProt P22909).
T1 construct: 16-465
T1 sequence (P22909 whole entry): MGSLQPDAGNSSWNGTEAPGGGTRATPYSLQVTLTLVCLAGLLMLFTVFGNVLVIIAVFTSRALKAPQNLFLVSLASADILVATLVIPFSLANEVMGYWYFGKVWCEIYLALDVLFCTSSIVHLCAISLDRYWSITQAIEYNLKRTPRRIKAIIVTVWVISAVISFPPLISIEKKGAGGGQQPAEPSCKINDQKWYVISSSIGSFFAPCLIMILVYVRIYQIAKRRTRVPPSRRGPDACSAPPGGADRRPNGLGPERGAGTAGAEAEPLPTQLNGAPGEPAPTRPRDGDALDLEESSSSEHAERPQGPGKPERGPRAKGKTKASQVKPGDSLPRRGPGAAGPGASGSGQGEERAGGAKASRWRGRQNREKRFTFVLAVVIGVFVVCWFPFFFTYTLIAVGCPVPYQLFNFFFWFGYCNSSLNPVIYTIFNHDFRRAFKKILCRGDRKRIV

Test [2] addresses T2, Alpha-2C adrenergic receptor (Rattus norvegicus, UniProt P22086).
T2 sequence (P22086 whole entry): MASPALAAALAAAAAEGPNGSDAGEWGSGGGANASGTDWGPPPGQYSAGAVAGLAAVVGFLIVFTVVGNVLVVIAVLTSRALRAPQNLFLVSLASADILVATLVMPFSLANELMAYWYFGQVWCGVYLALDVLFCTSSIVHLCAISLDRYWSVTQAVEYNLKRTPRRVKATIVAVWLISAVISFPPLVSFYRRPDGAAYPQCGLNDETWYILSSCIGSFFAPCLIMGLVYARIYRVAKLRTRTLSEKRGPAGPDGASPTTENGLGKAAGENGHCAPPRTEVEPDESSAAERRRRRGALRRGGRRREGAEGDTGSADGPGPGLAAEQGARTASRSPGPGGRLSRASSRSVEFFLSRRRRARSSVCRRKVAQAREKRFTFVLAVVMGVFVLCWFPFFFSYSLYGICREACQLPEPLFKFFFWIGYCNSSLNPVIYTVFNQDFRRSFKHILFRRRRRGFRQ

On to `CCC(=O)Nc1c(C)cc(C(=O)N2CCC(N(C)CCc3ccccc3)CC2)cc1C` [NSC_219019], for which the inhibition constant Ki (as a rule, a dissociation constant, usually derived from enzyme kinetics or from competition with a known ligand) in test [1] is 3840 nM; in test [2], 13.7 nM.

The values above are taken from BindingDB's records for PubMed 11602678 (Otsuka Maryland Research Institute, 2001).
